Experimental data as given in patent US20080241177A1 (priority 2003, published 2008).

Columns and labels:
[1] = Delayed type hypersensitivity (DTH) testing; assay type: in vivo, human; settings: for Induration area, DTH testing: 48 hours following intradermal injection of individual peptide, after four vaccinations; for Number of patients with a peptide-specific DTH response: six trial patients who underwent DTH testing
Experimental: Delayed type hypersensitivity (DTH) testing was carried out 1 month after the final vaccination. […] Induration of […]10 mm^2 at 48 hours after injection was considered positive.

PBMCs [2] = assay: (3H)-thymidine proliferation assay; assay type: cell-based, human; settings: for stimulation index: 10 μg/ml peptide
Experimental: FIG. 4. Cell-mediated response to peptide 5 in trial subject 016, measured over the course of the vaccination schedule. Patient PBMCs were stimulated with 10 μg/ml peptide 5, incubated in vitro for 6 days, pulsed with ^3H-thymidine for 18 hours and then proliferation was assessed by ^3H-thymidine incorporation.
Peripheral blood mononuclear cells (PBMCs) were plated at a concentration of 1×10^5 cells/well for thymidine proliferation and ELISpot assays and at 1×10^6 cells/well (24 well plates) for the CFSE proliferation assay. ELISpot plates were coated with mouse anti-human IFN-γ antibody (Diaclone, France) and cells for CFSE assay were stained with 5 μM CFSE-FITC (Molecular Probes, Eugene, Oreg.). All PBMCs were in RPMI supplemented with 2 mM L-glutamine, 10 mM HEPES, 100 U/mL penicillin/streptomycin and 10% human AB serum (Australian Red Cross Blood Service).
The recall antigens CMV lysate, (1/2000 dilution; BioWhittaker, Walkersville, Md.) and tetanus toxoid (2.5 Lfu/ml; CSL) were also tested. PBMCs were incubated at 37° C. and 5% CO2 atmosphere for 20 hours (ELISpot) or 6 days (proliferation assays).
In the thymidine proliferation assay, cells were pulsed with 0.5 μCi/well [methyl-^3H]-thymidine (Amersham, Buckinghamshire, UK) and harvested 18 hours later. [^3H]-thymidine incorporation was measured by liquid scintillation counting. A sample was considered to be positive when the stimulation index^22 for each well in the quadruplicate sample exceeded the mean of unstimulated cells by at least three standard deviations.

serum antibodies [3] = assay: Immunization of sheep with the vaccine, anti-peptide ELISA; settings: for Polyclonal sera with reactivity to peptide obtained from immunized sheep: 200 μg peptide mixture in CpG DNA adjuvant, prime and boost
serum antibodies [4] = assay: ELISA for serum antibodies specific for the individual vaccine peptides, human sera; settings: for Number of individuals with a humoral response to the vaccine peptides, Normal controls n = 30 / Percent of individuals with a humoral response to the vaccine peptides, Normal controls n = 30: n = 30, not vaccinated
PBMCs [5] = assay: CFSE proliferation assay; assay type: cell-based, human; settings: subject 016, visit 5
[6] = patient 016, visit 5 (1 month after vaccination 4)
[7] = non-trial cancer controls, n = 54, sera 1:25 dilution
[8] = trial subjects who completed four vaccinations, n = 6, detectable response at any time point considered positive

Substance	Induration area, DTH testing ([1]; patient 012)	Induration area, DTH testing ([1]; patient 014)	Induration area, DTH testing ([1]; patient 015)	Induration area, DTH testing ([1]; patient 016) [mm^2]	Induration area, DTH testing ([1]; patient 017) [mm^2]	Induration area, DTH testing ([1]; patient 018)	Number of patients with a peptide-specific DTH response [1]	stimulation index (PBMCs [2]; [6])	Polyclonal sera with reactivity to peptide obtained from immunized sheep (serum antibodies [3]; two sheep)	Number of individuals with a humoral response to the vaccine peptides, Cancer controls n = 54 (serum antibodies [4]; [7])	Number of individuals with a humoral response to the vaccine peptides, Normal controls n = 30 (serum antibodies [4])	Percent of individuals with a humoral response to the vaccine peptides, Normal controls n = 30 (serum antibodies [4]) [%]	Number of individuals with a humoral response to the vaccine peptides, Trial subjects n = 6 (serum antibodies [4]; [8])	other results
H-LEWMGIINPSGGSANYAPKFKGRLTMS-OH [Peptide 1]	Neg (Neg indicates that induration (if any) was less than 10 mm^2)	Neg (Neg indicates that induration (if any) was less than 10 mm^2)	Neg (Neg indicates that induration (if any) was less than 10 mm^2)	104	24	Neg (Neg indicates that induration (if any) was less than 10 mm^2)	two	10.4	one animal did not respond	0	3	10	0	Response to peptide using the polyclonal sheep sera or rabbit sera (serum antibodies [3]; polyclonal sheep sera (FIG. 2A) or rabbit sera (data not shown)): positive responses; Number of individuals with a humoral response to the vaccine peptides, Trial subjects n = 6 (serum antibodies [4]; trial subjects who completed four vaccinations, n = 6, detectable response at any time point considered positive, listed as peptide 1): No patient demonstrated a response
H-LEWVGFIRSKAYGAATAYAASMKGRVTI-OH [Peptide 5]	165 mm^2	16 mm^2	24 mm^2	269	373	94 mm^2	all six	22.2	obtained from both sheep	3	2	6.7	2	stimulation index (PBMCs [2]; patient 016, visit 3 (1 month after vaccination 2)): 8.88; stimulation index (PBMCs [2]; patient 016, visit 4 (1 month after vaccination 3)): 64.6; First appearance of peptide-specific proliferative response (PBMCs [2]; patient 016, maximal after three vaccinations): visit 3; Specific proliferative response, % of circulating CD3 and CD4 positive cells (PBMCs [5]): 5.5%; Serum antibody titres, first versus second immunized sheep (serum antibodies [3]; two sheep): equivalent; Percent of individuals with a humoral response to the vaccine peptides, Cancer controls n = 54 (serum antibodies [4]; [7]): 5.6%; Isotype of peptide-specific serum antibodies (serum antibodies [4]; subject 015): IgG3; Isotype of peptide-specific serum antibodies (serum antibodies [4]; subject 016): IgG3; Percent of individuals with a humoral response to the vaccine peptides, Trial subjects n = 6 (serum antibodies [4]; [8]): 33.3%; Number of individuals with a humoral response to the vaccine peptides, Trial subjects n = 6 (serum antibodies [4]; trial subjects who completed four vaccinations, n = 6, detectable response at any time point considered positive, listed as peptide 5): two
